Measurements: US11155517B2, “4-substituted phenylamine derivatives and their use to protect crops by fighting undesired phytopathogenic micoorganisms” (PI INDUSTRIES LTD., priority 2016, dated 2021)

How the values were obtained:
Type in all cases: cell-based
Alternaria solani = Alternaria solani (early blight of tomato/potato) in vitro test, radial growth on Potato Dextrose Agar; settings: 168 h, 300 ppm, seven days, 25° C., read-out: % control compared to the untreated check (radial growth)
Septoria lycopersici = Septoria lycopersici (leaf spot of tomato) in vitro test, radial growth on Potato Dextrose Agar; settings: 168 h, seven days, 25° C., read-out: % control compared to the untreated check (radial growth)
Pyricularia oryzae = assay: microbe, parasite or virus in culture; settings: 168 h, read-out: % control compared to the untreated check (radial growth)
Rhizoctonia solani = Rhizoctonia solani (rice sheath blight/potato black scurf) in vitro test, radial growth on Potato Dextrose Agar; settings: 168 h, 300 ppm, seven days, 25° C., read-out: % control compared to the untreated check (radial growth)
Colletotrichum capsici = Colletotrichum capsici (anthracnose) in vitro test, radial growth on Potato Dextrose Agar; settings: Colletotrichum truncatum, 168 h; 300 ppm; seven days, 25° C.; read-out: % control compared to the untreated check (radial growth)
Botrytis cinerea = Botrytis cinerea (gray mold) in vitro test, radial growth on Potato Dextrose Agar; settings: 168 h, 300 ppm, seven days, 22° C., read-out: % (control) compared to the untreated check (radial growth)
Fusarium culmorum = Fusarium culmorum (foot rot of cereals) in vitro test, radial growth on Potato Dextrose Agar; settings: 300 ppm; seven days, 25° C.

CCN(C)C=Nc1cc(C)c(Cc2ccc(Cl)c(Cl)c2)cc1Cl [Compound 20, N′-(2-chloro-4-(3,4-dichlorobenzyl)-5-methylphenyl)-N-ethyl-N-methylformimidamide] showed an inhibition of growth at 300 ppm (Alternaria solani) of over 75%, an inhibition of growth at 300 ppm (Septoria lycopersici) of over 70% and an inhibition of growth at 300 ppm (Pyricularia oryzae) of over 75%. It also gave an inhibition of growth at 300 ppm (Rhizoctonia solani) of over 80% and an inhibition of growth at 300 ppm (Colletotrichum capsici) of over 80%.
Cc1cc(N=CN2CCOCC2)c(C)cc1Cc1ccc(F)c(Cl)c1 [Compound 34, N-(4-(3-chloro-4-fluorobenzyl)-2,5-dimethylphenyl)-1-morpholinomethanimine] showed an inhibition of growth at 300 ppm (Alternaria solani) of over 75%, an inhibition of growth at 300 ppm (Septoria lycopersici) of over 70% and an inhibition of growth at 300 ppm (Pyricularia oryzae) of over 75%. For the same molecule, the inhibition of growth at 300 ppm (Rhizoctonia solani) was over 80% and the inhibition of growth at 300 ppm (Colletotrichum capsici) was over 80%.
Cc1cc(N=CN2CCCCC2)c(C)cc1Cc1cccc(Br)c1F [Compound 37, N-(4-(3-bromo-2-fluorobenzyl)-2,5-dimethylphenyl)-1-(piperidin-1-yl)methanimine] was tested, and the inhibition of growth at 300 ppm (Alternaria solani) was over 75%, the inhibition of growth at 300 ppm (Botrytis cinerea) was over 80% and the inhibition of growth at 300 ppm (Septoria lycopersici) was over 70%. It also gave an inhibition of growth at 300 ppm (Pyricularia oryzae) of over 75%, an inhibition of growth at 300 ppm (Rhizoctonia solani) of over 80% and an inhibition of growth at 300 ppm (Colletotrichum capsici) of over 80%.
Work on Cc1cc(N=CN2CCSCC2)c(C)cc1Cc1ccccc1Cl [Compound 86, N-(4-(2-chlorobenzyl)-2,5-dimethylphenyl)-1-thiomorpholinomethanimine] yielded an inhibition of growth at 300 ppm (Alternaria solani) of over 75%, an inhibition of growth at 300 ppm (Botrytis cinerea) of over 80% and an inhibition of growth at 300 ppm (Septoria lycopersici) of over 70%. It also gave an inhibition of growth at 300 ppm (Pyricularia oryzae) of over 75%, an inhibition of growth at 300 ppm (Rhizoctonia solani) of over 80% and an inhibition of growth at 300 ppm (Colletotrichum capsici) of over 80%.
With Cc1cc(N=CN(C)CC2CC2)c(C)cc1Cc1ccccc1F [Compound 87, N-(cyclopropylmethyl)-N-(4-(2-fluorobenzyl)-2,5-dimethylphenyl)-N-methylformimidamide] the “% control compared to the untreated check (radial growth)” value (Fusarium culmorum) was 75%.
Work on CCN(C)C=Nc1cc(C)c(Cc2cc(C(F)(F)F)cc(C(F)(F)F)c2)cc1C [Compound 106, N′-(4-(3,5-bis(trifluoromethyl)benzyl)-2,5-dimethylphenyl)-N-ethyl-N-methylformimidamide] yielded an inhibition of growth at 300 ppm (Alternaria solani) of over 75%, an inhibition of growth at 300 ppm (Botrytis cinerea) of over 80% and an inhibition of growth at 300 ppm (Septoria lycopersici) of over 70%. The inhibition of growth at 300 ppm (Pyricularia oryzae) was over 75%, the inhibition of growth at 300 ppm (Rhizoctonia solani) was over 80% and the inhibition of growth at 300 ppm (Colletotrichum capsici) was over 80%.
Molecule CCN(C)C=Nc1cc(C)c(Cc2ccccc2OC(F)(F)F)cc1C [Compound 116, N′-(2,5-dimethyl-4-(2-(trifluoromethoxy)benzyl)phenyl)-N-ethyl-N-methylformimidamide] has an inhibition of growth at 300 ppm (Alternaria solani) of over 75%, an inhibition of growth at 300 ppm (Botrytis cinerea) of over 80% and an inhibition of growth at 300 ppm (Septoria lycopersici) of over 70%. For the same molecule, the inhibition of growth at 300 ppm (Pyricularia oryzae) was over 75%, the inhibition of growth at 300 ppm (Rhizoctonia solani) was over 80% and the inhibition of growth at 300 ppm (Colletotrichum capsici) was over 80%.
Work on CCN(C)C=Nc1cc(C)c(Cc2cc(C)cc(C)c2)cc1Cl [Compound 130, N′-(2-chloro-4-(3,5-dimethylbenzyl)-5-methylphenyl)-N-ethyl-N-methylformimidamide] yielded an inhibition of growth at 300 ppm (Alternaria solani) of over 75%, an inhibition of growth at 300 ppm (Botrytis cinerea) of over 80% and an inhibition of growth at 300 ppm (Septoria lycopersici) of over 70%. The inhibition of growth at 300 ppm (Pyricularia oryzae) was over 75%, the inhibition of growth at 300 ppm (Rhizoctonia solani) was over 80% and the inhibition of growth at 300 ppm (Colletotrichum capsici) was over 80%.
For CCN(C)C=Nc1cc(C)c(Cc2cccc(F)c2Cl)cc1C [Compound 131, N′-(4-(2-chloro-3-fluorobenzyl)-2,5-dimethylphenyl)-N-ethyl-N-methylformimidamide], the inhibition of growth at 300 ppm (Alternaria solani) was over 75%, the inhibition of growth at 300 ppm (Botrytis cinerea) was over 80% and the inhibition of growth at 300 ppm (Septoria lycopersici) was over 70%. It also gave an inhibition of growth at 300 ppm (Pyricularia oryzae) of over 75%, an inhibition of growth at 300 ppm (Rhizoctonia solani) of over 80% and an inhibition of growth at 300 ppm (Colletotrichum capsici) of over 80%.
For CCN(C)C=Nc1cc(C)c(Cc2cc(C(F)(F)F)cc(Cl)c2F)cc1C [Compound 134, N′-(4-(3-chloro-2-fluoro-5-(trifluoromethyl)benzyl)-2,5-dimethylphenyl)-N-ethyl-N-methylformimidamide], the inhibition of growth at 300 ppm (Alternaria solani) was over 75%, the inhibition of growth at 300 ppm (Botrytis cinerea) was over 80% and the inhibition of growth at 300 ppm (Septoria lycopersici) was over 70%. For the same molecule, the inhibition of growth at 300 ppm (Pyricularia oryzae) was over 75%, the inhibition of growth at 300 ppm (Rhizoctonia solani) was over 80% and the inhibition of growth at 300 ppm (Colletotrichum capsici) was over 80%.
In the case of CCN(C)C=Nc1ccc(Cc2ccccc2F)cc1 [Compound 163, N-ethyl-N′(4-(2-fluorobenzyl)phenyl)-N-methylformimidamide], the inhibition of growth at 300 ppm (Alternaria solani) was over 75%, the inhibition of growth at 300 ppm (Botrytis cinerea) was over 80% and the inhibition of growth at 300 ppm (Septoria lycopersici) was over 70%. It also gave an inhibition of growth at 300 ppm (Pyricularia oryzae) of over 75%, an inhibition of growth at 300 ppm (Rhizoctonia solani) of over 80% and an inhibition of growth at 300 ppm (Colletotrichum capsici) of over 80%.
CCN(C)C=Nc1ccc(Cc2ccccc2Cl)cc1 [Compound 164, N′-(4-(2-chlorobenzyl)phenyl)-N-ethyl-N-methylformimidamide] showed an inhibition of growth at 300 ppm (Alternaria solani) of over 75%, an inhibition of growth at 300 ppm (Botrytis cinerea) of over 80% and an inhibition of growth at 300 ppm (Septoria lycopersici) of over 70%. The inhibition of growth at 300 ppm (Pyricularia oryzae) was over 75%, the inhibition of growth at 300 ppm (Rhizoctonia solani) was over 80% and the inhibition of growth at 300 ppm (Colletotrichum capsici) was over 80%.
CCN(C)C=Nc1cc(C)c(Cc2cc(C(F)(F)F)ccc2Cl)cc1Cl [Compound 168, N′-(2-chloro-4-(2-chloro-5-(trifluoromethyl)benzyl)-5-methylphenyl)-N-ethyl-N-methylformimidamide] showed an inhibition of growth at 300 ppm (Alternaria solani) of over 75%, an inhibition of growth at 300 ppm (Botrytis cinerea) of over 80% and an inhibition of growth at 300 ppm (Septoria lycopersici) of over 70%. The inhibition of growth at 300 ppm (Pyricularia oryzae) was over 75%, the inhibition of growth at 300 ppm (Rhizoctonia solani) was over 80% and the inhibition of growth at 300 ppm (Colletotrichum capsici) was over 80%.
With CCN(C)C=Nc1cc(C)c(Cc2cccc(C)c2C)cc1Cl [Compound 170, N-(2-chloro-4-(2,3-dimethylbenzyl)-5-methylphenyl)-N-ethyl-N-methylformimidamide] the “% control compared to the untreated check (radial growth)” value (Fusarium culmorum) was 75%.
Work on CCN(C)C=Nc1cc(C)c(Cc2ccc(Cl)c(OC(F)(F)F)c2)cc1Cl [Compound 177, N′-(2-chloro-4-(4-chloro-3-(trifluoromethoxy)benzyl)-5-methylphenyl)-N-ethyl-N-methylformimidamide] yielded an inhibition of growth at 300 ppm (Alternaria solani) of over 75%, an inhibition of growth at 300 ppm (Botrytis cinerea) of over 80% and an inhibition of growth at 300 ppm (Septoria lycopersici) of over 70%. It also gave an inhibition of growth at 300 ppm (Pyricularia oryzae) of over 75%, an inhibition of growth at 300 ppm (Rhizoctonia solani) of over 80% and an inhibition of growth at 300 ppm (Colletotrichum capsici) of over 80%.
Molecule CCN(C)C=Nc1cc(C)c(Cc2c(Cl)cccc2Cl)cc1Cl [Compound 195, N′-(2-chloro-4-(2,6-dichlorobenzyl)-5-methylphenyl)-N-ethyl-N-methylformimidamide] has an inhibition of growth at 300 ppm (Alternaria solani) of over 75%, an inhibition of growth at 300 ppm (Botrytis cinerea) of over 80% and an inhibition of growth at 300 ppm (Septoria lycopersici) of over 70%. It also gave an inhibition of growth at 300 ppm (Pyricularia oryzae) of over 75% and an inhibition of growth at 300 ppm (Colletotrichum capsici) of over 80%.
In the case of CCN(C)C=Nc1cc(F)c(Cc2cccc(Cl)c2)cc1F [Compound 243, N′-(4-(3-chlorobenzyl)-2,5-difluorophenyl)-N-ethyl-N-methylformimidamide], the inhibition of growth at 300 ppm (Alternaria solani) was over 75%, the inhibition of growth at 300 ppm (Septoria lycopersici) was over 70% and the inhibition of growth at 300 ppm (Pyricularia oryzae) was over 75%. The inhibition of growth at 300 ppm (Rhizoctonia solani) was over 80% and the inhibition of growth at 300 ppm (Colletotrichum capsici) was over 80%.
CCN(C)C=Nc1cc(F)c(Cc2cccc(C)c2)cc1F [Compound 244, N′-(2,5-difluoro-4-(3-methylbenzyl)phenyl)-N-ethyl-N-methylformimidamide] was tested, and the inhibition of growth at 300 ppm (Alternaria solani) was over 75%, the inhibition of growth at 300 ppm (Botrytis cinerea) was over 80% and the inhibition of growth at 300 ppm (Septoria lycopersici) was over 70%. The inhibition of growth at 300 ppm (Pyricularia oryzae) was over 75% and the inhibition of growth at 300 ppm (Rhizoctonia solani) was over 80%.
For CCN(C)C=Nc1cc(F)c(Cc2ccc(C)cc2)cc1F [Compound 245, N′-(2,5-difluoro-4-(4-methylbenzyl)phenyl)-N-ethyl-N-methylformimidamide], the inhibition of growth at 300 ppm (Alternaria solani) was over 75%, the inhibition of growth at 300 ppm (Botrytis cinerea) was over 80% and the inhibition of growth at 300 ppm (Septoria lycopersici) was over 70%. It also gave an inhibition of growth at 300 ppm (Pyricularia oryzae) of over 75%, an inhibition of growth at 300 ppm (Rhizoctonia solani) of over 80% and an inhibition of growth at 300 ppm (Colletotrichum capsici) of over 80%.
With CCN(C)C=Nc1cc(C#N)c(Cc2ccccc2Cl)cc1C [Compound 246, N′-(4-(2-chlorobenzyl)-5-cyano-2-methylphenyl)-N-ethyl-N-methylformimidamide] the inhibition of growth at 300 ppm (Alternaria solani) was over 75%, the inhibition of growth at 300 ppm (Botrytis cinerea) was over 80% and the inhibition of growth at 300 ppm (Septoria lycopersici) was over 70%. The inhibition of growth at 300 ppm (Pyricularia oryzae) was over 75%, the inhibition of growth at 300 ppm (Rhizoctonia solani) was over 80% and the inhibition of growth at 300 ppm (Colletotrichum capsici) was over 80%.
Work on CCN(C)C=Nc1cc(C#N)c(Cc2ccccc2C)cc1C [Compound 248, N′-(5-cyano-2-methyl-4-(2-methylbenzyl)phenyl)-N-ethyl-N-methylformimidamide] yielded an inhibition of growth at 300 ppm (Alternaria solani) of over 75%, an inhibition of growth at 300 ppm (Botrytis cinerea) of over 80% and an inhibition of growth at 300 ppm (Septoria lycopersici) of over 70%. It also gave an inhibition of growth at 300 ppm (Pyricularia oryzae) of over 75% and an inhibition of growth at 300 ppm (Rhizoctonia solani) of over 80%.
For CCN(C)C=Nc1cc(F)c(Cc2ccccc2C)cc1F [Compound 254, N′-(2,5-difluoro-4-(2-methylbenzyl)phenyl)-N-ethyl-N-methylformimidamide], the inhibition of growth at 300 ppm (Alternaria solani) was over 75%, the inhibition of growth at 300 ppm (Botrytis cinerea) was over 80% and the inhibition of growth at 300 ppm (Septoria lycopersici) was over 70%. For the same molecule, the inhibition of growth at 300 ppm (Pyricularia oryzae) was over 75%, the inhibition of growth at 300 ppm (Rhizoctonia solani) was over 80% and the inhibition of growth at 300 ppm (Colletotrichum capsici) was over 80%.
For CCN(C)C=Nc1cc(Cl)c(Cc2ccccc2Cl)cc1C [Compound 255, N′-(5-chloro-4-(2-chlorobenzyl)-2-methylphenyl)-N-ethyl-N-methylformimidamide], the inhibition of growth at 300 ppm (Alternaria solani) was over 75%, the inhibition of growth at 300 ppm (Botrytis cinerea) was over 80% and the inhibition of growth at 300 ppm (Septoria lycopersici) was over 70%. For the same molecule, the inhibition of growth at 300 ppm (Pyricularia oryzae) was over 75%, the inhibition of growth at 300 ppm (Rhizoctonia solani) was over 80% and the inhibition of growth at 300 ppm (Colletotrichum capsici) was over 80%.
Work on CCN(C)C=Nc1ccc(Cc2ccccc2Cl)c2ccccc12 [Compound 270, N′-(4-(2-chlorobenzyl)naphthalen-1-yl)-N-ethyl-N-methylformimidamide] yielded an inhibition of growth at 300 ppm (Alternaria solani) of over 75%, an inhibition of growth at 300 ppm (Botrytis cinerea) of over 80% and an inhibition of growth at 300 ppm (Septoria lycopersici) of over 70%. For the same molecule, the inhibition of growth at 300 ppm (Pyricularia oryzae) was over 75%, the inhibition of growth at 300 ppm (Rhizoctonia solani) was over 80% and the inhibition of growth at 300 ppm (Colletotrichum capsici) was over 80%.
